According to ChEMBL document CHEMBL4043254, “Discovery of potential antiausterity agents from the Japanese cypress Chamaecyparis obtusa” (2017):
The source made the active and inactive calls. The calls are words filed in the database; no cut-off is given here.

Key:
PANC-1 [1] = experiment: Antiausteritic activity against human PANC1 cells in nutrient-deprived medium measured after 24 hrs by WST8 assay; assay type: functional
MIA PaCa-2 = experiment: Antiausteritic activity against human MIAPaCa2 cells in nutrient-deprived medium measured after 24 hrs by WST8 assay; assay type: functional
CAPAN-1 = experiment: Antiausteritic activity against human Capan1 cells in nutrient-deprived medium measured after 24 hrs by WST8 assay; assay type: functional
PSN1 = experiment: Antiausteritic activity against human PSN1 cells in nutrient-deprived medium measured after 24 hrs by WST8 assay; assay type: functional
[2] = Antiausteritic activity against human KLM1 cells in nutrient-deprived medium measured after 24 hrs by WST8 assay; assay type: functional
PANC-1 [3] = experiment: Antiausteritic activity against human PANC1 cells assessed as decrease in cell index under nutrient-deprived medium measured at 15 secs interval for 24 hrs by real time cell analysis; assay type: functional, cell-based
PANC-1 [4] = experiment: Antiausteritic activity against human PANC1 cells assessed as normalized cell index by measuring cell growth inhibition at 25 uM under nutrient-deprived medium measured at 15 secs interval for 24 hrs by real time cell analysis; assay type: functional, cell-based
PANC-1 [5] = experiment: Antiausteritic activity against human PANC1 cells assessed as decrease in cell index by measuring cell death at 50 uM under nutrient-deprived medium measured at 15 secs interval for 4 hrs by real time cell analysis; assay type: functional, cell-based
PANC-1 [6] = experiment: Antiausteritic activity against human PANC1 cells assessed as reduction in cell migration at 50 uM under nutrient-deprived medium measured at 5 mins interval for 30 mins by live cell imaging analysis; assay type: functional, cell-based
PANC-1 [7] = experiment: Antiausteritic activity against human PANC1 cells assessed as alterations in cell morphology at 50 uM under nutrient-deprived medium measured at 5 mins interval for 2 hrs by live cell imaging analysis; assay type: functional, cell-based
PANC-1 [8] = experiment: Antiausteritic activity against human PANC1 cells assessed as cell death at 50 uM under nutrient-deprived medium measured at 5 mins interval for 8 hrs by live cell imaging analysis; assay type: functional, cell-based
PANC-1 [9] = experiment: Induction of morphological changes in human PANC1 cells assessed as increase in dead cells after 24 hrs by Hoechst 33342/propidium iodide staining based inverted microscopic analysis; assay type: functional, cell-based
PANC-1 [10] = experiment: Induction of morphological changes in human PANC1 cells assessed as nuclear fragmentation at 25 to 50 uM after 24 hrs by Hoechst 33342/propidium iodide staining based inverted microscopic analysis; assay type: functional, cell-based
[11] = target: RAC-alpha serine/threonine-protein kinase (Homo sapiens) (UniProt P31749); experiment: Inhibition of AKT phosphorylation at Ser473 residues in human PANC1 cells at 50 uM measured within 3 hrs under nutrient deprived condition by Western blot analysis; assay type: cell-based
Sequence of RAC-alpha serine/threonine-protein kinase (Homo sapiens) (P31749 whole entry): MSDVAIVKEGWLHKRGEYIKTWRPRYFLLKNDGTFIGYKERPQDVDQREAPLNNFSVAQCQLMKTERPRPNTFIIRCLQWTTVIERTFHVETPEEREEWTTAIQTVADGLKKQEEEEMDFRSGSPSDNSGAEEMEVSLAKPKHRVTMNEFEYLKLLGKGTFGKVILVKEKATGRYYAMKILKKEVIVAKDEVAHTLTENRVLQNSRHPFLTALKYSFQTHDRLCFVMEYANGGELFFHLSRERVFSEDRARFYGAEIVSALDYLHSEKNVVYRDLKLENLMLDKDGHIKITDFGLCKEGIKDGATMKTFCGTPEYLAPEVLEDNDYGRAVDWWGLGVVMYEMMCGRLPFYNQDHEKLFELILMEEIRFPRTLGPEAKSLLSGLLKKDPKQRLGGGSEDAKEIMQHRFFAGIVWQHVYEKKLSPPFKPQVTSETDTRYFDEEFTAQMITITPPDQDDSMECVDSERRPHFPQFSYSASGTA

[12] = target: RAC-alpha serine/threonine-protein kinase (Homo sapiens) (UniProt P31749); experiment: Inhibition of AKT in human PANC1 cells assessed as reduction in mTOR phosphorylation at Ser2448 residue measured after 3 hrs under nutrient deprived condition by Western blot analysis; assay type: cell-based
[13] = target: RAC-alpha serine/threonine-protein kinase (Homo sapiens) (UniProt P31749); experiment: Inhibition of AKT in human PANC1 cells assessed as reduction in mTOR phosphorylation at Ser2448 residue at 50 uM measured after 3 hrs under nutrient deprived condition by Western blot analysis; assay type: cell-based
PANC-1 [14] = experiment: Induction of autophagy in human PANC1 cells assessed as increase in LC3-1 expression after 3 hrs under nutrient deprived medium by Western blot analysis; assay type: functional, cell-based
PANC-1 [15] = experiment: Induction of autophagy in human PANC1 cells assessed as increase in LC3-2 expression after 3 hrs under nutrient deprived medium by Western blot analysis; assay type: functional, cell-based
PANC-1 [16] = experiment: Induction of morphological changes in human PANC1 cells assessed as increase in dead cells after 24 hrs by ethidium bromide/acridine orange staining based inverted microscopic analysis; assay type: functional, cell-based

SMILES	PC50 (PANC-1 [1]) [µM]	PC50 (MIA PaCa-2) [µM]	PC50 (CAPAN-1) [µM]	PC50 (PSN1) [µM]	PC50 [2] [µM]	other results
CC1=C[C@@H]2[C@@H](CC1)[C@](C)(O)CC[C@H]2C(C)C	46	49.1	>100	>100	69.7	
C/C1=C/C(=O)CC[C@@](C)(O)CC[C@@H](C(C)C)C1=O	>100	>100	>100	67.7	98.1	
CC(=O)OCC1=C[C@@H]2[C@@H](CC1)[C@@](C)(O)CC[C@H]2C(C)C		35.7	>100	>100	69	
CC(C)[C@@H]1CC[C@@](C)(O)[C@@H]2CCC(CO)=C[C@H]21	>100	>100	>100	>100	95.3	
COc1cc(C[C@H]2C(=O)OC[C@@H]2Cc2ccc(OC)c(OC)c2)ccc1O [ARCTIGENIN]	0.5	1.9	1.2	0.7	0.8	
O=C1OC[C@H](Cc2ccc3c(c2)OCO3)[C@H]1Cc1ccc2c(c1)OCO2 [HINOKININ]	64.1	21.3	50.1	60.1	92.5	
CC1=C[C@@H]2[C@@H](CC1=O)[C@@](C)(O)CC[C@H]2C(C)C	>100	>100	>100	>100	>100	
CC(C)[C@@H]1CC[C@](C)(O)[C@@H]2CCC(CO)=C[C@H]21	82.1	29.8	>100	50.6	77.2	
CC1=C[C@@H]2[C@@H](CC1)[C@@](C)(O)CC[C@H]2C(C)C [T-CADINOL]					45.1	Activity (PANC-1 [3]): Dose-dependent effect; Activity (PANC-1 [4]): Active; Activity (PANC-1 [5]): Active; Activity (PANC-1 [6]): Active; Activity (PANC-1 [7]): Active; Activity (PANC-1 [8]): Active; Activity (PANC-1 [9]): Dose-dependent effect; Activity (PANC-1 [10]): Active; inhibition [11]: Active; inhibition [12]: Dose-dependent effect; inhibition [13]: 100%; Activity (PANC-1 [14]): Dose-dependent effect; Activity (PANC-1 [15]): Dose-dependent effect; Activity (PANC-1 [16]): Dose-dependent effect
